This note sets out measurements from PMC11220654, “A Frog Skin‐Derived Peptide Targeting SCD1 Exerts Radioprotective Effects Against Skin Injury by Inhibiting STING‐Mediated Inflammation” (Advanced Science, 2024).

One series deals with TBK1 in HaCaT cells. Description: TBK1 protein level and ubiquitination (Western blotting, IP). The class given is cell-based, human. The text has this:
Here, we further explored whether and how RIFSP‐2 decreased the protein level of TBK1 in HaCaT cells. […] Since the degradation of TBK1 protein was reported to be regulated by either ubiquitination mediated proteasome pathway^[ [33] ^] or chaperone‐mediated autophagy signaling,^[ [34] ^] we testified the influence of the protein synthesis inhibitor (CHX) and the proteasome inhibitor (MG132) in RIFSP‐2 treated HaCaT cells. […] Then we analyzed the colocalization of TBK1 and lysosomes through confocal immunofluorescence microscopy assays. Although, administration of RIFSP‐2 induced a transient decrease of TBK1 fluorescence intensity (Figure S5K,L, Supporting Information), the co‐localization assays didn't support the increase of TBK1 location in lysosomes in RIFSP‐2 treated HaCaT cells (Figure S5M, Supporting Information).
Fig. S5 Influence of RIFSP-2 on STING activation and TBK1 expression in HaCaT […]
Communities classified based on the association network of the different metabolites in irradiated cells treated with or without RIFSP -2. (B) Structural character analysis of the lipid metabolites in irradiated cells treated with or without RIFSP -2. (C) Dose dependent induction of phosphorylation of STING and downstream TBK1 detected through western blotting. […] (M) Pearson correlation coefficient was calculated through Image J to explore the colocalization between TBK1 and […]
A general note: A western blot detects proteins with antibodies after separation by electrophoresis.

Another series concerns WS1 cells. Description: Intracellular uptake of FITC-labeled peptides (confocal microscopy, flow cytometry). The class given is cell-based. The text has this:
(§1) Distinct from previous reports, the RIFSPs were obtained from skin tissue crude extracts but not from skin secretions. In addition, the administration of exogenous RIFSPs protected cultured skin cells, which hints that some RIFSPs may exert membrane permeability. Therefore, we synthesized FITC‐labeled RIFSPs‐2/5/9/10 and evaluated their possible intracellular uptake by skin cells. […] Glycosaminoglycans have been reported to affect the efficiency of cellular uptake of a wide range of cell penetrating peptides,^[ [27] ^] and we therefore used the competitive inhibitor heparin to investigate whether internalization of FITC‐RIFSP‐2 was dependent on recognition by glycosaminoglycans on the cell surface.
After forming electrostatic interactions with the plasma membrane, peptides principally penetrate into cells via macropinocytosis.^[ [28] ^] […]
(A) Administration of FITC-labeled RIFSPs to WS1 cells and identification of the membrane […] of RIFSP-2 through confocal microscopy. (B)Time- and dose-dependent uptake of FITC-RIFSP-2 by WS1 cells detected through confocal microscopy and flow cytometry analysis. […] Conditioned medium from WS1 cells pretreated with RIFSP-2 increased MMP of irradiated HaCaT cells and vice versa, detected by JC-1(G and H) and Mito-Tracker Red CMXRos (I) staining (n = 4, ** P < 0.01).

For another series, the system named is HaCaT cells. The series is described as above. The class given is cell-based.
Text: as §1
Figure 2 Macropinocytosis‐mediated uptake of radiation‐induced frog skin peptide 2 (RIFSP‐2) protects skin cells against radiation‐induced injury. […] B) Time‐ and dose‐dependent uptake of FITC‐RIFSP‐2 by HaCaT cells detected through flow cytometry analysis. […] The effect of RIFSP‐2 on D) cell proliferation, E) cell cycle, and F,G) senescence, as detected by colony formation assay, propidium iodide (PI) staining and SA‐β‐Gal staining analysis, respectively. […] M) Effect of RIFSP‐2 on the homeostasis of actin filaments in irradiated skin cells, as detected by rhodamine phalloidin and G‐actin staining assays. […]

For a further series, the system named is skin tissues of mice. The settings on record: mouse, in vivo, sc.
In series [1] the test system is STING signaling in HaCaT cells. Briefly: STING downstream signals and inflammatory factors with LPC (18:1) (Western blotting, ELISA). The class given is cell-based, human. The procedure: Since RIFSP‐2 directly restrained SCD1 and modulated neutral lipid droplets, we further investigated whether alteration of lipid profiles by RIFSP‐2 interfered with STING activation in response to irradiation. […] Furthermore, we investigated the influence of RIFSP‐2 on STING‐regulated inflammatory factors, including IFN‐β, TNF‐α, IL‐1, and IL‐6. […] Nevertheless, significant increase of IFN‐β production in acute stage and TNF‐α production in relative late stage (48 h) in macrophage cells were detected through both Western blotting and ELISA assays (Figure 4F,G).
2.6 Protein-protein interaction analysis
The identified databases of specific binding proteins for RIFSP-2 and STING in irradiated skin cells were merged and the confidence score of interactions >0.7 were regarded as high confidence in alinement of STRING database. Finally, the visualization of this protein-protein interaction was realized through the Cytoscape software.
2.7 Assessment of cytokines by Elisa
HaCaT and RAW264.7 cells were cultivated in 6 cm plates at a density of 5 × 10^5 cells/mL with 2 mL medium per well and treated with LPC (18:1) plus RIFSP-2 for 24 h. 6 or 48 h after irradiation, cytokine concentrations in the […] were measured by ELISA according to the instructions provided by the manufacturer (NEOBIOSCIENCE). The absorbance was detected using a BioTek reader (Synergy HTX, Winooski, USA) at 450 nm. […]

Residues, ends and D or L forms follow the SMILES beside them. No end group written: not given here. *: point of attachment. Cbz = O=C(OCc1ccccc1)*

`CCN(CC)CCCC(C)Nc1ccnc2cc(Cl)ccc12` (stereo not drawn) [CQ, chloroquine]: the “influence on TBK1 degradation caused by RIFSP-2” value in the series on TBK1 in HaCaT cells (10 nM chloroquine 4 hours, then 15 µM RIFSP-2 24 hours) is listed as “little influence of lysosomes in TBK1 degradation”.
Consider `C=C1[C@@H](C)[C@H]2[C@H](Cc3ccccc3)NC(=O)[C@]23[C@H](OC(C)=O)/C=C/[C@@](C)(O)C(=O)[C@@H](C)C/C=C/[C@H]3[C@@H]1O` [CytD, cytochalasin D], for which the “effect on WS1 cells” value with WS1 cells (after CytD administration in the uptake study) is “swelled and subsequently died in 30 min”.
As to `CC(C)C[C@@H](C=O)NC(=O)[C@H](CC(C)C)NC(=O)[C@H](CC(C)C)NC(=O)OCc1ccccc1` [MG132] (Cbz-Leu-Leu-Leu-aldehyde), in the series with TBK1 in HaCaT cells (24 h after RIFSP-2 treatment (15 µM), MG132 10 µM pretreated 2 hours), the “influence on the reduction of TBK1 protein level by RIFSP-2” value is listed as “abrogated the reduction of TBK1 protein level”.
Take LAAGGYDVDKNNSRLK [RIFSP‐2]: the “time at which the FITC signal could be detected” value in the series with WS1 cells is “as soon as one hour after administration”. Also, the “uptake in HaCaT cells” value with HaCaT cells is “time‐ and dose‐dependent manner”. For the same compound, in the series with skin tissues of mice, the adverse effects entry was “did not cause obvious adverse effects” and the “histological examination of the skin tissues” value is given as “no significant differences”.
In the case of LPC (18:1), the “accumulation of TGF-β, TNF-α, IL-1 and IL-6” value in series [1] (keratinocytes but not macrophage cells, Western blotting) is recorded as “aggravated the accumulation”. Also, in series [1] (supplementation, dose-dependent manner (Figure S5C)), the “phosphorylation of STING and TBK1” value was “elevated the phosphorylation of both STING and its substrate TBK1”.
